The source made the active and inactive calls. No cut-off for these calls is given here.
Assays:
[1] = target: T1, S-ribosylhomocysteine lyase (Escherichia coli K-12) (UniProt P45578); test: Inhibition of Escherichia coli LuxS using S-ribosyl-homocysteine substrate at pH 7 after 10 mins by fluorimetric assay
T1 sequence (whole entry): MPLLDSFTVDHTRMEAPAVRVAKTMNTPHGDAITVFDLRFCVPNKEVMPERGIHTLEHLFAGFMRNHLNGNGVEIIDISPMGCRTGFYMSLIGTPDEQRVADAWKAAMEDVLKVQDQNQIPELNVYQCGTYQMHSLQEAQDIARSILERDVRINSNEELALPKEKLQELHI

[2] = target: T1, S-ribosylhomocysteine lyase (Escherichia coli K-12); test: Inhibition of Escherichia coli LuxS using variable levels of S-ribosyl-homocysteine substrate at pH 7 after 10 mins by fluorimetric assay
[3] = target: T1, S-ribosylhomocysteine lyase (Escherichia coli K-12); test: Inhibition of Escherichia coli LuxS using variable levels of S-ribosyl-homocysteine substrate by UV/Vis absorbance spectroscopy; settings: TDE = time-dependent effect
[4] = target: T1, S-ribosylhomocysteine lyase (Escherichia coli K-12); test: Inhibition of Escherichia coli LuxS assessed as induction of covalent modification by UV/Vis absorbance spectroscopy
[5] = target: T1, S-ribosylhomocysteine lyase (Escherichia coli K-12); test: Inhibition of Escherichia coli LuxS assessed as formation of enzyme-adduct formation by mass spectrometry
[6] = target: T1, S-ribosylhomocysteine lyase (Escherichia coli K-12); test: Inhibition of Escherichia coli LuxS assessed as induction of Cys126 alkylation by MALDI-MS method

SMILES	inhibition [1]	inhibition [2]	inhibition [3]	inhibition [4]	inhibition [5]	inhibition [6]
O=C1C=C/C(=C/Br)O1	Dose-dependent effect					
O=C1C=CC(=C(Br)Br)O1	Active					
CCCCC1=CC(=C(Br)Br)OC1=O	Active					
CCCCC1=C(Br)/C(=C/Br)OC1=O	Dose-dependent effect	Active	tde	Active	Active	Active

Reference: ChEMBL document CHEMBL1154301, “A naturally occurring brominated furanone covalently modifies and inactivates LuxS” (Bioorg Med Chem Lett, 2009)
